# Where a SMILES comes first, the peptide text is derived from it.
# Target: T1, PDK1 (Homo sapiens, UniProt O15530)
# T1 sequence (O15530 1-556): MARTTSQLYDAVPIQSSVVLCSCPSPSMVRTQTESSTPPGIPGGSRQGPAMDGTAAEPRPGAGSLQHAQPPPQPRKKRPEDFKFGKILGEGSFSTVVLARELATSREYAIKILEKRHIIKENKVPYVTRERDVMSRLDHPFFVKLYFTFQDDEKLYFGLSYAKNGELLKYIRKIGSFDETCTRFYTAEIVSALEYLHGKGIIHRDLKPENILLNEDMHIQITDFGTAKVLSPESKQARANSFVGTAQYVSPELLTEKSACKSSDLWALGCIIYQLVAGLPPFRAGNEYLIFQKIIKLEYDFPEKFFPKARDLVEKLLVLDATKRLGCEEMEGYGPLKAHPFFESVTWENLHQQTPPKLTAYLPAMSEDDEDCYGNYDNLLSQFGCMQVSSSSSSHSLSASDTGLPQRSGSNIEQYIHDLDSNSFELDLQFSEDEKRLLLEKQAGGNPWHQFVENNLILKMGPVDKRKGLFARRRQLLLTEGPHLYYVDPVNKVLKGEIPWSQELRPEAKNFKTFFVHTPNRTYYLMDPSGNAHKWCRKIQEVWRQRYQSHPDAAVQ
# Test: PDK1 activity towards synthetic peptide substrates T308tide or PDKtide
# Type: biochemical
# Design: Full length PDK1 (residues 1-556); made in house; host or cells: 293 cells
# Conditions: substrate T308tide
# Protocol: FIG. 12. PDK1 is activated and stabilised through its interaction with PIFtide. (A) GST-PDK1 activity was measured in the presence of increasing concentrations of wild type (wt) PIFtide (closed circles) or a mutant D978A PIFtide (open circles) using the synthetic peptide substrate termed T308tide, as described in Material and Methods. The data was fitted to a hyperbola using the Kaleidagraph™ software. The connection needed to obtain 50% activation of PDK1 was […] for wt-PIFtide and 1.1 μM for D978A-PIFtide. The assay shown was performed in triplicate and there was less than 5% difference between each assay. Similar results were obtained in 2 further experiments (B)—The wild type GST-PDK1 (circles) or the L155D mutant of GST-PDK1 (squares) was incubated in the presence (closed symbols) or absence (open symbols) of […] PIFtife and then for 2 min at the indicated temperatures, rapidly brought to 0° C. (see Materials and Methods), and 2 min later assayed at 30° C. for 10 min using T308tide as substrate. The activity of PDK1 obtained by incubation at 30° C. was taken as 100%. The assay shown was performed in duplicate with similar results obtained in two separate experiments.
# FIG. 14. […] (A) His-PDK1 was assayed for activity using as substrate the indicated concentration of either PDKtide (open triangles) or T308tide (open circles). […]
# PDK1's ability to phosphorylate Thr308 of PKBα was measured using a mutant of GST-PKBα in which Ser473 was mutated to Asp (GST-473D PKBα) in the presence of phospholipid vesicles containing sn-1-stearoyl-2-arachidonoyl-D-PtdIns (3, 4, 5)P3 [13]. […] 35 μl of the resultant mixture was spotted into P81 phosphocellulose paper (2×2 cm) and the papers washed and analysed as described previously for assays of MAP kinase. […] Control assays were carried out in parallel in which either PDK1, or peptide substrate were omitted; these values were always less than 5% of the activity measured in the presence of these reagents. […]
less effective at inducing PDK1 activation than wild type PIFtide [fold],SMILES,"EC50 (GST-PDK1, read-out: concentration required for half-maximal (50%) activation of PDK1) [nM]",increase in PDK1 activity towards T308tide
8,CC[C@H](C)[C@H](NC(=O)[C@H](CCCNC(=N)N)NC(=O)[C@@H]1CCCN1C(=O)[C@H](CCC(=O)O)NC(=O)[C@@H](N)CCCNC(=N)N)C(=O)N[C@@H](CC(C)C)C(=O)N[C@@H](CO)C(=O)N[C@@H](CCC(=O)O)C(=O)N[C@@H](CCC(=O)O)C(=O)N[C@@H](CCC(=O)O)C(=O)N[C@@H](CCC(N)=O)C(=O)N[C@@H](CCC(=O)O)C(=O)N[C@@H](CCSC)C(=O)N[C@@H](Cc1ccccc1)C(=O)N[C@@H](CCCNC(=N)N)C(=O)N[C@@H](CC(=O)O)C(=O)N[C@@H](Cc1ccccc1)C(=O)N[C@@H](C)C(=O)N[C@@H](Cc1ccc(O)cc1)C(=O)N[C@@H](CC(C)C)C(=O)N[C@@H](C)C(=O)N[C@@H](CC(=O)O)C(=O)N[C@@H](Cc1c[nH]c2ccccc12)C(=O)N[C@@H](CS)C(=O)O [D978A-PIFtide] (H-REPRILSEEEQEMFRDFAYLADWC-OH; N-terminus and C-terminus assumed),,
,CC[C@H](C)[C@H](NC(=O)[C@H](Cc1ccc(O)cc1)NC(=O)[C@H](CC(=O)O)NC(=O)[C@H](Cc1ccccc1)NC(=O)[C@H](CC(=O)O)NC(=O)[C@H](CCCNC(=N)N)NC(=O)[C@H](Cc1ccccc1)NC(=O)[C@H](CCSC)NC(=O)[C@H](CCC(=O)O)NC(=O)[C@H](CCC(N)=O)NC(=O)[C@H](CCC(=O)O)NC(=O)[C@H](CCC(=O)O)NC(=O)[C@H](CCC(=O)O)NC(=O)[C@H](CO)NC(=O)[C@H](CC(C)C)NC(=O)[C@@H](NC(=O)[C@H](CCCNC(=N)N)NC(=O)[C@@H]1CCCN1C(=O)[C@H](CCC(=O)O)NC(=O)[C@@H](N)CCCNC(=N)N)[C@@H](C)CC)C(=O)N[C@@H](C)C(=O)N[C@@H](CC(=O)O)C(=O)N[C@@H](Cc1c[nH]c2ccccc12)C(=O)N[C@@H](CS)C(=O)O [PIFtide] (H-REPRILSEEEQEMFRDFDYIADWC-OH; N-terminus and C-terminus assumed),140,up to 4 fold

# From patent publication US20080009025A1, “PROTEIN KINASE REGULATION” (priority 1999, published 2008)
